Source: article PMC6764326, “The Trials and Tribulations of Structure Assisted Design of KCa Channel Activators” (Frontiers in Pharmacology, 2019)

Legend:
[1] = test system: KCa3.1 over KCa2 channels; details: first generation activators; ref Christophersen and Wulff, 2015; cited from earlier work
WT KCa3.1 [2] = target: T1, WT KCa3.1 (Homo sapiens, UniProt O15554+P0DP23); details: 100 µM EBIO; control current at 250 nM free Ca2+; wild type channel
[3] = test system: S372 in KCa3.1 or the corresponding S632 residue in KCa2.3 to arginine; set-up: method as in Brown et al., 2017; details: ref Brown et al., 2017; cited from earlier work
KCa2.2 = test system: KCa2.2; set-up: method as in Sankaranarayanan et al., 2009; details: ref Sankaranarayanan et al., 2009; cited from earlier work
KCa3.1 = details: cited from earlier work; for EC50: ref Coleman et al., 2014, read-out: Potency of KCa3.1 activation
KCa2 = test system: KCa2; set-up: method as in Coleman et al., 2014; details: ref Coleman et al., 2014; read-out: Potency of KCa2 activation; cited from earlier work
KCa2.3 = test system: KCa2.3; set-up: method as in Coleman et al., 2014; details: ref Coleman et al., 2014; read-out: Potency of KCa2.3 activation; cited from earlier work
[4] = target: T2, KCa3.1 S181A-L185A double mutant (Homo sapiens, UniProt O15554+P0DP23, L185A/S181A); test: Inside-out patch-clamp calcium concentration-response; type: cell-based
T2 construct: expressed in transfected cells; host or cells: CHO cells, transient transfection
Description: (§1) All experiments were performed in either the inside-out or the whole-cell configuration of the patch-clamp technique on either transiently transfected CHO cells or Human Embryonic Kidney (HEK) cell lines stably expressing hKCa3.1 or hKCa2.2 ([Sankaranarayanan et al., 2009]). All cells were cultured in Dulbecco’s modified Eagle’s medium supplemented with 10% fetal calf serum. […]
(§2) For manual whole-cell experiments, the extracellular solution contained 160 mM NaCl, 4.5 mM KCl, 2 mM CaCl2, 1 mM MgCl2, and 10 mM HEPES (pH 7.4, 300 mOsm). Solutions on the intracellular side contained 154 mM KCl, 10 mM HEPES, 10 mM EGTA, 1.75 mM MgCl2, and 5.9 mM CaCl2 for a calculated free Ca^2+ concentration of 250 nM (pH 7.2, 290 mOsm). […] Intracellular solutions contained 154 mM KCl, 10 mM HEPES, 10 mM EGTA, 1.75 mM MgCl2, and varying amounts of CaCl2 for calculated free Ca^2+ concentrations of […] (pH 7.2, 280–300 mOsm). Free Ca^2+ concentrations were calculated using the July 3, 2009 online version of MaxChelator (https://somapp.ucdmc.ucdavis.edu/pharmacology/bers/maxchelator/webmaxc/webmaxcS.htm) assuming a temperature of 25°C, a pH of 7.2, and an ionic strength of 160 mM. […]

WT KCa3.1 [5] = target: T1, WT KCa3.1; test: as above; type: cell-based; set-up: expressed in transfected cells; host or cells: CHO cells, transient transfection
Description: as §1, §2

CCn1c(=O)[nH]c2ccccc21 [EBIO]
Selectivity for KCa3.1 over KCa2 channels [1]: 5–10 fold | Increase of control current (WT KCa3.1 [2]): 5–10 fold | Change of activator potency by S372R (KCa3.1) / S632R (KCa2.3) mutation [3]: strong reduction in potency

O=C1Nc2c(ccc(Cl)c2Cl)C1=NO [NS309, 6,7-dichloro-1H-indole-2,3-dione 3-oxime]
Selectivity for KCa3.1 over KCa2 channels [1]: 5–10 fold | Change of activator potency by S372R (KCa3.1) / S632R (KCa2.3) mutation [3]: strong reduction in potency

Nc1nc2c(ccc3ccccc32)s1 [SKA-31, Naphtho[1,2-d]thiazol-2-ylamine]
Selectivity for KCa3.1 over KCa2 channels [1]: 5–10 fold | Activation of KCa2.2 at 10 µM (KCa2.2): maximally activates | Activation of KCa3.1 at 10 µM (KCa3.1; 10 µM, ref Sankaranarayanan et al., 2009): maximally activates

Cc1nc2c(ccc3ccccc32)s1 [SKA-74, 2-methylnaphtho[1,2-d]thiazole]
EC50 (KCa3.1): ~30 µM | EC50 (KCa2): ~30 µM

Nc1nc(-c2cccc3ccccc23)cs1 [SKA-75]
EC50 (KCa3.1): ~30 µM | EC50 (KCa2.3): ~30 µM

Nc1nc(-c2ccc3ccccc3c2)cs1 [SKA-76]
EC50 (KCa3.1): ~50 µM | EC50 (KCa2.3): ~25 µM

[Ca] [calcium]
EC50 [4]: 0.392 µM | nH calcium concentration-response [4]: 1.39 | EC50 (WT KCa3.1 [5]): 0.437 µM | nH calcium concentration-response (WT KCa3.1 [5]): 1.98
